This is an account of results in patent publication US20040116523A1, “Use of c4-c10 acids for preventing gram-negative bacterial infections” (priority 2000, published 2004).

Assay [1] has as its system S. enteritidis LA5. Description: Splenic colonization of C57Bl/6 mice infected orally with S. enteritidis LA5. In kind it is in vivo. The settings on record: 50 mM in drinking water pH 7.2-7.3; 10^7 bacteria per animal orally; distilled water 7.5 ± 0.3. The method, then: They were infected orally in the following way. The Salmonella strains were cultured in TCS broth for 18 hours at 37° C. with shaking (200 rpm). This culture was then adjusted to […] (in the stationary growth phase, 1 OD600 =1.5 ×10^9 bacteria/ml), and then the number of viable bacteria was controlled by counting on TCS agar.
On the day of infection (DO), the drinking-water bottles of the mice were replaced with bottles containing 100 ml of drinking water to which the required number of bacteria had been added.
After infection for 24 hours ([…]), the bottles containing the contaminated drinking water were replaced with bottles containing uncontaminated drinking water.
Seven days after infection (D+7), the spleens of the mice infected in this way were removed and homogenized separately in 1 ml of physiological saline containing 0.7% of NaCl.
The number of viable bacteria per spleen was determined by plating out dilutions of the homogenate, onto TCS agar.
The S. dublin strain 5917 (Coynault & Norel, Microb. Pathog., 1999, 26, 299-305) and S. enteritidis strain LAS (Thorns et al., Microb. Pathog., 1996, 20, 235-246) were used to infect C57B1/6 mice orally at the dose of 10^7 bacteria per animal.

Assay [2] concerns invF′-lacZ fusion (S. typhi strain Ty272). As to the kind of experiment: β-galactosidase activity of the invF′-lacZ fusion in favourable LB medium. It is filed as cell-based. The method, then:
The favourable LB medium (high osmolarity and concentration of Ca^2+ions) was defined as being the standard LB medium modified so as to have a final NaCl concentration of 300 mM and a final Ca concentration of 5 mM.
(§1) Each of the strains described above was cultured at 37° C. on agar or in TCS broth. The P-galactosidase activity was determined using 4-methyl-umbelliferyl-p-D-galactopyranoside sold by the company Sigma, according to the technique of Klarsfeld et al. (Mol. Mibrobiol., 1994, 13, 585-597). The results, expressed in P-galactosidase units (fluorescence per hour and per OD600), represent the mean of the values obtained in at least three independent experiments. The standard deviations were less than 10% of the values presented.
For this, the S. typhi strains Ty267, Ty272 and Ty277, which carry the iagA′-lacZ, invF′-lacZ and sipB′-lacZ fusions, respectively, (see Table I), were cultured in the favourable LB or unfavourable LB medium.
The action of these two compounds on the expression of the iagA′-lacZ, invF′-lacZ and sipB′-lacZ fusions was studied by measuring the β-galactosidase activity expressed by these fusions as a function of the time of culturing (samples removed every two hours).

In assay [3] the test system is iagA′-lacZcat fusion in S. typhi strain Ty267. Description: "Biotype 100" plate screen for carbon-based substrates that repress the iagA′-lacZcat fusion (β-galactosidase activity). It is filed as cell-based. The settings on record: "Biotype 100" cupule, amount of substrate not known; favourable LB medium; 36 hours at 37° C.; control cupule without substrate 11 250. The protocol:
as §1
A “Biotype 100”® plate sold by the company BioMerieux is composed of 100 microcupules. Each micro-cupule contains a dehydrated carbon-based substrate, with the exception of the first cupule, which is a control without substrate (the amount of dehydrated substrate per cupule is not given by the manufacturer).
In the context of the present example, these plates were used to search for carbon-based compounds which would block the expression of the invasion genes in Salmonella.
For this, the S. typhi strain Ty267, which is a derivative of the parental strain Ty2 carrying the iagA′-lacZcat transcriptional fusion (Table I), was cultured in TCS broth for 18 hours at 37° C. with shaking (200 rpm).
This culture was then diluted 100-fold in favourable LB medium (0.6 ml of culture for 60 ml of favourable LB), and then this suspension was used immediately to seed the 100 cupules of a “Biotype 100”® plate, in a proportion of 450 μl of suspension per cupule.
After incubation for 36 hours in an incubator at 37° C., the activity of the iagA′-lacZcat fusion in the Ty267 strain was determined for the culture of each cupule.
By comparing the value of the P-galactosidase activity measured in a cupule containing a carbon-based substrate with that of the control cupule without substrate, it was possible to investigate whether a substrate had no effect on, activated or repressed the expression of the iagA′-lacZcat fusion.
The S. typhi strain Ty267 (iagA′-lacZ fusion), suspended in the favourable LB medium, was used to seed the “Biotype 100”® plates.
The β-galactosidase activity expressed by the iagA′-lacZ fusion was determined for the culture in each cupule. With respect to the β-galactosidase activity measured in the control cupule without substrate (11 250 β-galactosidase units), no substrate caused an increase in the expression of the iagA′-lacZ fusion.

Structures are written as SMILES.

For the compound `CCCCCCCC(=O)[O-].[Na+]` [sodium caprylate], the “Number of viable bacteria in the spleen (mean in log10)” value in assay [1] was 3.7 ± 0.4 log10. In assay [2] (1 mM in favourable LB medium), the “β-galactosidase activity expressed by the invF′-lacZ fusion as % of that in favourable LB medium without the substance” value is around 20%. For the same compound, in assay [2] (concentration greater than or equal to 2.5 mM, favourable LB medium), the “expression of the invF gene (invF′-lacZ fusion)” value is “very strongly represses”. For the same compound, the “β-galactosidase activity expressed by the iagA′-lacZ fusion in the cupule” value in assay [3] is reported as 47 β-galactosidase units.
